The values that follow come from ChEMBL document CHEMBL5209564, “Superclomeleon biosensor based assay for SLC12A3 using HEK-293 SLC12A3 OE cells” (2022).

This assay addresses T1, Solute carrier family 12 member 3 (Homo sapiens) (UniProt P55017).
T1 sequence (whole entry): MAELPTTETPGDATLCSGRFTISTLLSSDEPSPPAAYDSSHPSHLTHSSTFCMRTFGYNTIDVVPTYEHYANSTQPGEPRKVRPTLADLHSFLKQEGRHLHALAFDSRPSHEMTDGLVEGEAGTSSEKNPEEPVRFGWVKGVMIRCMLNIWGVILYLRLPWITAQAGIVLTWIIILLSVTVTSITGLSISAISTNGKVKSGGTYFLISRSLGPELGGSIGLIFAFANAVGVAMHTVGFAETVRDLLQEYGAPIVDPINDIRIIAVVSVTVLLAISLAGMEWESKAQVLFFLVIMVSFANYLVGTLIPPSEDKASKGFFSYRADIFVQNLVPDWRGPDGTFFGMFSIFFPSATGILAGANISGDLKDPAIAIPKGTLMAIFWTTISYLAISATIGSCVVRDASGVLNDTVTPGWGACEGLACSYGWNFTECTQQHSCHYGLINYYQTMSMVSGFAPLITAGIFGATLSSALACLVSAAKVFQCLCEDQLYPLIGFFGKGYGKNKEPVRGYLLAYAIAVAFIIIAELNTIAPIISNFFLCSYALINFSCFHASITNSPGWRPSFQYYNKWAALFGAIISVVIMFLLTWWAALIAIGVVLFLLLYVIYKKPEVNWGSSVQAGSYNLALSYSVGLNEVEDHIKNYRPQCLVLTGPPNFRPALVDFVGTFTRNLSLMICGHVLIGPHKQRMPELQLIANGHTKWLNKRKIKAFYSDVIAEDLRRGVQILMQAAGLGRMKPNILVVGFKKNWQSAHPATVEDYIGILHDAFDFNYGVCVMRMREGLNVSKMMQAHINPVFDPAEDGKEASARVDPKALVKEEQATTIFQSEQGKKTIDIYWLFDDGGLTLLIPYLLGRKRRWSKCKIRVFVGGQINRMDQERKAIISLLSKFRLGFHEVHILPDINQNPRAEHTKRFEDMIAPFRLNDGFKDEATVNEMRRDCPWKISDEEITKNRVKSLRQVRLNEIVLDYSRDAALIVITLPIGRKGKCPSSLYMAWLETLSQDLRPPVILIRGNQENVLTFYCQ
To be noted: HEK293.

The structures appear in SMILES notation.

Description: Substrate uptake by the thiazide-sensitive electroneutral NaCl co-transporter (NCC, SLC12A3) as assessed by a Cl- sensitive FRET (Fluorescence Resonance Energy Transfer) sensor (SuperClomeleon) in HEK-293 JumpIN-SLC12A3 cells (PubChem AID: 1794834)

For `Cl`, the proof of principle entry was “Substrate. In Comparison To Wild-Type And Not-Induced Cells, Cells With Induced Slc12A3 Expression Showed A Specific Transporter Activity, Upon Substrate Addition, Detected As Significantly Higher Sensor Fluorescence Quenching”.
